This is an account of results in patent US20090143279A1 (priority 2007, published 2009).

“And” between values parts separate entries of the source, which are not always exact repeats. Equal values may be shown once. Where a name gives a salt, the structure may show the parent alone.

For one test, the system named is cytochrome c. In kind it is cell-based, mouse.
Settings: not given
`CCN(CC)CCOc1ccc(C(=C(Cl)c2ccccc2)c2ccccc2)cc1` [clomiphene]: the cyt c worked out at 0.699 and the “cyt c (composite Z-score vs DMSO mock-treated wells)” value amounted to 0.025.
In the case of `Nc1cc(C(Cl)=C(Cl)Cl)c(S(N)(=O)=O)cc1S(N)(=O)=O` [clorsulon], the cyt c was −0.186.
Same read-out and setting: next, `C[C@]12C[C@H](O)[C@H]3[C@@H](CCC4=CC(=O)CC[C@@]43C)[C@@H]1CC[C@@H]2C(=O)CO` [corticosterone]: −0.379.
`CC1(C)S[C@@H]2[C@H](NC(=O)C3(N)CCCCC3)C(=O)N2[C@H]1C(=O)O` [cyclacillin]: the “cyt c (composite Z-score)” value was −0.886.
The molecule `O=P1(N(CCCl)CCCl)NCCCO1` (centres unmarked) [cyclophosphamide] came in with a cyt c of −0.088.
`CN1CCC(=C2c3ccccc3C=Cc3ccccc32)CC1` [cyproheptadine]: the “cyt c (composite Z-score)” value is on record as 0.064.
On to `NC[C@@H]1CC[C@@H](N)[C@@H](O[C@H]2[C@H](O)[C@@H](O[C@H]3O[C@H](CO)[C@@H](O)[C@H](N)[C@H]3O)[C@H](N)C[C@@H]2N)O1` [dibekacin], for which the cyt c is on record as 0.464.
Still for that read-out and setting: the result for `COc1c(Cl)ccc(Cl)c1C(=O)O` [dicamba] reads 0.278.
The same measure, in the same setting: next, `Cc1onc(-c2c(Cl)cccc2Cl)c1C(=O)N[C@@H]1C(=O)N2[C@@H]1SC(C)(C)[C@@H]2C(=O)O` [dicloxacillin sodium salt]: 0.836.
Consider `COc1ccc([C@@H]2Sc3ccccc3N(CCN(C)C)C(=O)[C@@H]2OC(C)=O)cc1` [diltiazem], for which the cyt c came to 0.385 and the “cyt c (composite Z-score vs DMSO)” value was −0.201.
`CN(C)CCCSC(=N)N` [dimaprit]: the “cyt c (composite Z-score)” value was −0.184.
On to `CNC(=O)CSP(=S)(OC)OC` [dimethoate], for which the cyt c turned out to be 0.837.
In the case of `Cc1c(C(N)=O)cc([N+](=O)[O-])cc1[N+](=O)[O-]` [dinitolmide], the “cyt c (composite Z-score vs DMSO)” value worked out at 0.218.
Regarding `CN1CCC(OC(c2ccccc2)c2ccccc2)CC1` [diphenylpyraline], the cyt c was 0.321 and 0.558.
Same read-out and setting: next, `O=c1[nH]c2ccccc2n1CCCN1CCC(n2c(=O)[nH]c3cc(Cl)ccc32)CC1` [domperidone]: 0.276.
Take `CCN[C@H]1C[C@H](C)S(=O)(=O)c2sc(S(N)(=O)=O)cc21` [dorzolamide]: the “cyt c (composite Z-score vs DMSO)” value is −0.076.
Turning to `CN(C)CCC=C1c2ccccc2COc2ccccc21` [doxepin], the cyt c worked out at 1.151 and the “cyt c (composite Z-score vs DMSO)” value is reported as −0.095.
For `O=C(CCCN1CC=C(n2c(=O)[nH]c3ccccc32)CC1)c1ccc(F)cc1` [droperidol], the “cyt c (composite Z-score vs DMSO)” value is 0.270 and 0.161.
As for `CCCSP(=O)(OCC)SCCC` [ethoprop], the cyt c is 0.271.
The same measure, in the same setting: next, `O=C(OCCOCCO)c1ccccc1Nc1cccc(C(F)(F)F)c1` [etofenamate]: −0.030; `CC(C)(C(=O)O)c1ccc(C(O)CCCN2CCC(C(O)(c3ccccc3)c3ccccc3)CC2)cc1` (centres unmarked) [fexofenadine]: −0.751.
Regarding `OC(Cn1cncn1)(Cn1cncn1)c1ccc(F)cc1F` [fluconazole], the “cyt c (composite Z-score vs DMSO)” value came to 0.741.
Regarding `CC1(C)O[C@@H]2C[C@H]3[C@@H]4C[C@H](F)C5=CC(=O)C=C[C@]5(C)[C@H]4[C@@H](O)C[C@]3(C)[C@]2(C(=O)CO)O1` [flunisolide], the cyt c worked out at 0.715 and the “cyt c (composite Z-score vs DMSO)” value was −0.257.
As for `OCCN1CCN(CCCN2c3ccccc3Sc3ccc(C(F)(F)F)cc32)CC1` [fluphenazine], the “cyt c (composite Z-score vs DMSO mock-treated wells)” value is on record as −0.074.
As for `COCCCC/C(=N\OCCN)c1ccc(C(F)(F)F)cc1` [fluvoxamine], the cyt c amounted to 0.483.
As for `NS(=O)(=O)c1cc(C(=O)O)c(NCc2ccco2)cc1Cl` [furosemide], the “cyt c (composite Z-score vs DMSO mock-treated wells)” value is 0.234 and 0.342.
On to `COc1ccc(-c2ccc(=N)n(CCCC(=O)O)n2)cc1` [gabazine], for which the cyt c is given as −0.094.
On the same count and under the same terms, next, `COc1ccc2c3c1O[C@H]1C[C@@H](O)C=C[C@@]31CCN(C)C2` [galanthamine]: −1.112.
For the molecule `O=c1c(-c2ccc(O)cc2)coc2cc(O)cc(O)c12` [genistein], the “cyt c (composite Z-score vs DMSO)” value was 0.295.
For `O=C(O)c1cc(O)ccc1O` [gentisic acid], the “cyt c (composite Z-score vs DMSO mock-treated wells)” value is given as 0.210.
Consider `Cc1cnc(C(=O)NCCc2ccc(S(=O)(=O)NC(=O)NC3CCCCC3)cc2)cn1` [glipizide], for which the “cyt c (composite Z-score vs DMSO)” value came out at 0.287.
Still for that read-out and setting: next, `N[C@@H](CCC(=O)N[C@@H](CS)C(=O)NCC(=O)O)C(=O)O` [glutathione]: −0.913.
In the case of `C[N+]1(C)CCC(OC(=O)C(O)(c2ccccc2)C2CCCC2)C1` (centres unmarked) [glycopyrrolate], the cyt c is 0.260.
With `NCCc1c[nH]cn1` [histamine], the “cyt c (composite Z-score vs DMSO)” value was determined as 0.016.
Same read-out and setting: next, `Oc1ccc(O)cc1` [hydroquinone]: −4.999.
Regarding `CN1[C@@H]2CC[C@H]1C[C@@H](OC(=O)[C@H](CO)c1ccccc1)C2` [hyoscyamine], the cyt c is given as 0.319 and the “cyt c (composite Z-score vs DMSO mock-treated wells)” value came out at 0.235.
The molecule `O=c1[nH]cnc2nc[nH]c12` [hypoxanthine] had a cyt c of 0.608.
`C[C@@H](O)[C@H]1C(=O)N2C(C(=O)O)=C(SCCN=CN)C[C@H]12` [imipenem] registered a cyt c of −0.330.
Still for that read-out and setting: the result for `O=C(NCC(O)CO)c1c(I)c(C(=O)NCC(O)CO)c(I)c(N(CCO)C(=O)CO)c1I` (centres unmarked) [ioversol] reads 0.129.
With `O=C(/C=C/c1ccc(O)cc1)c1ccc(O)cc1O` [isoliquiritigenin], the “cyt c (composite Z-score)” value was determined as 0.089.
Regarding `COc1c2ccoc2c(OC)c2oc(=O)ccc12` [isopimpinellin], the cyt c was determined as 0.230.
As for `O=C1C=CC(=O)c2c(O)cccc21` [juglone], the “cyt c (composite Z-score vs DMSO)” value was 0.266.
Consider `CC(=O)N1CCN(c2ccc(OCC3COC(Cn4ccnc4)(c4ccc(Cl)cc4Cl)O3)cc2)CC1` (centres unmarked) [ketoconazole], for which the cyt c was found to be 0.406 and the “cyt c (composite Z-score vs DMSO mock-treated wells)” value turned out to be 0.109.
`O=C1C=C(O)C(=O)c2ccccc21` [lawsone] returned a cyt c of −0.273.

The same test, now with this note: composite Z-score vs mock-treated (DMSO) wells; concentration of each compound in μM.
With `C[C@]12CC[C@H](O)CC1=CC[C@@H]1[C@@H]2CC[C@]2(C)C(=O)CC[C@@H]12` [dehydroepiandrosterone], the cyt c is −0.634.
Still for that read-out and setting: next, `CN(CCCCCCCCCCN(C)C(=O)Oc1cccc([N+](C)(C)C)c1)C(=O)Oc1cccc([N+](C)(C)C)c1` [demecarium]: −0.211.
The same measure, in the same setting: the result for `COc1ccc(-c2cc(C(F)F)nn2-c2ccc(S(N)(=O)=O)cc2)cc1F` [deracoxib] reads 0.350; that for `COc1cc(OC)c2c(=O)c(-c3ccc4c(c3)OCO4)coc2c1` [derrustone], 0.470.
Same read-out and setting: next, `CCCCc1cc2ccccc2c(OCCN(C)C)n1` [dimethisoquin]: −1.006; `CNCC(O)c1ccc(OC(=O)C(C)(C)C)c(OC(=O)C(C)(C)C)c1` (centres unmarked) [dipivefrin]: −0.180.
As for `CC[C@H]1OC(=O)[C@H](C)[C@@H](O[C@H]2C[C@@](C)(OC)[C@@H](O)[C@H](C)O2)[C@H](C)[C@@H](O[C@@H]2O[C@H](C)C[C@H](N(C)C)[C@H]2O)[C@](C)(O)C[C@@H](C)[C@@H]2N[C@@H](COCCOC)O[C@H]([C@H]2C)[C@]1(C)O` [dirithromycin], the cyt c was found to be 0.356.
Same read-out and setting: the result for `CC(CCc1ccc(O)cc1)NCCc1ccc(O)c(O)c1` (centres unmarked) [dobutamine] reads −0.289; that for `CCCCCCCC/C=C/CCCCCCCCOP(=O)([O-])OCC[N+](C)(C)C` [elaidylphosphocholine], −0.840.
The same measure, in the same setting: next, `CCc1cccc(CC)c1NC(=O)CN(CC(=O)O)CC(=O)O` [etifenin]: 0.092; `CCOC(=O)C1=C(C)NC(C)=C(C(=O)OC)C1c1cccc(Cl)c1Cl` (centres unmarked) [felodipine]: −0.956; `Cc1cc(O)c(C=O)c2c1C(=O)Oc1c(COC(=O)/C=C/C(=O)O)c(O)c(C(=O)O)c(C)c1O2` [fumarprotocetraric acid]: 0.505.
Same read-out and setting: next, `CC(C)=CCC[C@]1(C)C=Cc2c(O)c3c(c(CC=C(C)C)c2O1)O[C@]12C(=C[C@@H]4C[C@H]1C(C)(C)O[C@@]2(C/C=C(/C)C(=O)O)C4=O)C3=O` [gambogic acid]: −5.596.
`CO/N=C1\CN(c2nc3c(cc2F)c(=O)c(C(=O)O)cn3C2CC2)CC1CN` (centres unmarked) [gemifloxacin] had a cyt c of 0.009.
The same measure, in the same setting: next, `CC(C)=CCC/C(C)=C/COC(=O)C=Cc1ccccc1` [geranyl cinnamate]: −0.107; `Cc1ccc(S(=O)(=O)NC(=O)NN2CC3CCCC3C2)cc1` (centres unmarked) [gliclazide]: 0.147; `CC[C@H]1CN2CC[C@H]1C[C@H]2[C@H](O)c1ccnc2ccc(OC)cc12` [hydroquinine]: 0.004.
For the molecule `COc1ccc(-c2oc3c(CC=C(C)C)c(O[C@@H]4O[C@H](CO)[C@@H](O)[C@H](O)[C@H]4O)cc(O)c3c(=O)c2O[C@@H]2O[C@@H](C)[C@H](O)[C@@H](O)[C@H]2O)cc1` [icariin], the cyt c was found to be 0.073.
`CC(=O)N(CC(O)CN(C(C)=O)c1c(I)c(C(=O)NCC(O)CO)c(I)c(C(=O)NCC(O)CO)c1I)c1c(I)c(C(=O)NCC(O)CO)c(I)c(C(=O)NCC(O)CO)c1I` (centres unmarked) [iodixanol] displayed a cyt c of −0.092.
Consider `COCC(=O)Nc1c(I)c(C(=O)NCC(O)CO)c(I)c(C(=O)N(C)CC(O)CO)c1I` (centres unmarked) [iopromide], for which the cyt c was 0.263.
Same read-out and setting: next, `COC(=O)C1=C(C)NC(C)=C(C(=O)OC(C)C)C1c1cccc2nonc12` (centres unmarked) [isradipine]: 0.236; `CC(C)=CCC[C@@H](C)[C@H]1CC[C@@]2(C)C3=C(CC[C@]12C)[C@@]1(C)CC[C@H](O)C(C)(C)[C@@H]1CC3` [lanosterol]: 0.383.

The test is the same for the next values; noted with them: normalized score (composite Z-score vs DMSO mock-treated wells); compound concentration (μM).
`OCCOCCN1CCN(C(c2ccccc2)c2ccc(Cl)cc2)CC1` (centres unmarked) [hydroxyzine] had a cyt c of 0.258.
The same measure, in the same setting: the result for `Clc1ccc(C(Cn2ccnc2)OCc2c(Cl)cccc2Cl)c(Cl)c1` (centres unmarked) [isoconazole] reads −0.572.
